Experimental data from patent US9656990B2, “Cathepsin cysteine protease inhibitors” (Merck Sharp & Dohme Corp., priority 2014, dated 2017).

How the values were obtained:
[1] = molecular target: human cathepsin K (UniProt P43236, Y175D/V274L, species not given); test: Cathepsin K Assay; type: biochemical; details: IP from dose response curve; Z-Leu-Arg-AMC substrate, pH 5.5; read-out: hrbCat K (IP (nM))
[2] = molecular target: T1, human cathepsin F (Homo sapiens, UniProt Q9UBX1); test: Cathepsin F Assay; type: biochemical; details: IP from dose response curve; Z-Phe-Arg-AMC substrate, pH 5.5; read-out: hCat F (IP (nM))
T1 sequence (Q9UBX1 271-484): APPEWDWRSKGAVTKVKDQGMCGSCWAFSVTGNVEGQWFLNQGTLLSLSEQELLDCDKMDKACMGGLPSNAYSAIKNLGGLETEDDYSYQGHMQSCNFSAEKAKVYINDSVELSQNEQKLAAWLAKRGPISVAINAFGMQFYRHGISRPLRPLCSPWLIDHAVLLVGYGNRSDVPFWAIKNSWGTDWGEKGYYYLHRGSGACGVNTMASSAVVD
Summary of the method: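 Human cathepsin F (10 nM) preincubated 15 min at room temperature with compounds in 50 mM MES pH 5.5, 2.5 mM EDTA, 2.5 mM DTT, 10% DMSO. Z-Phe-Arg-AMC (8 μM) added; AMC release read by fluorescence (Ex 360/Em 460 nm) over 20 min, inhibition fit to dose-response model.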

Work on CC(C)N=S1(=O)CCN(c2ccc(-c3cn(-c4ccc(F)cc4)nc3[C@@H]3CCCC[C@H]3C(=O)NC3(C#N)CC3)cc2)CC1 [Example 140, (1R,2R)-N-(1-cyanocyclopropyl)-2-(1-(4-fluorophenyl)-4-(4-(1-(isopropylimino)-1-oxidothiomorpholino)phenyl)-1H-pyrazol-3-yl)cyclohexanecarboxamide] yielded an IC50 [1] of 1.29 nM and an IC50 [2] of 782 nM.

With N#CC1(NC(=O)[C@@H]2CCCC[C@H]2c2nn(-c3cccnn3)cc2-c2ccc(N3CCS(=O)(=O)CC3)cc2)CC1 [Example 161, (1R,2R)-N-(1-cyanocyclopropyl)-2-(4-(4-(1,1-dioxidothiomorpholino)phen-yl)-1-(pyridazin-3-yl)-1H-pyrazol-3-yl)cyclohexanecarboxamide] the IC50 [1] was 1.61 nM and the IC50 [2] was 751 nM.

With CCN=S1(=O)CCN(c2ccc(-c3cn(-c4ccc(F)cc4)nc3[C@@H]3CCCC[C@H]3C(=O)NC3(C#N)CC3)cc2)CC1 [Example 138, (1R,2R)-N-(1-cyanocyclopropyl)-2-(4-(4-(1-(ethylimino)-1-oxidothiomorpholino)phenyl)-1-(4-fluorophenyl)-1H-pyrazol-3-yl)cyclohexanecarboxamide] the IC50 [1] was 1.62 nM and the IC50 [2] was 725 nM.

For N#CC1(NC(=O)[C@@H]2CCCC[C@H]2c2nn(-c3ccc(F)cc3F)cc2-c2ccc(N3CCS(=O)(=O)CC3)cc2)CC1 [Example 131, (1R,2R)-N-(1-cyanocyclopropyl)-2-(1-(2,4-difluorophenyl)-4-(4-(1,1-dioxidothiomorpholino)phen-yl)-1H-pyrazol-3-yl)cyclohexanecarboxamide], the IC50 [1] was 2.49 nM and the IC50 [2] was 1540 nM.

N#CC1(NC(=O)[C@@H]2CCCC[C@H]2c2nn(-c3ccc4[nH]ccc4c3)cc2-c2ccc(N3CCS(=O)(=O)CC3)cc2)CC1 [Example 137, (1R,2R)-N-(1-cyanocyclopropyl)-2-(4-(4-(1,1-dioxidothiomorpholino)phen-yl)-1-(1H-indol-5-yl)-1H-pyrazol-3-yl)cyclohexanecarboxamide] gave an IC50 [1] of 8.43 nM and an IC50 [2] of 2830 nM.

With N#CC1(NC(=O)[C@@H]2CCCC[C@H]2c2nn(-c3ncccc3F)cc2-c2ccc(N3CCS(=O)(=O)CC3)cc2)CC1 [Example 144, (1R,2R)-N-(1-cyanocyclopropyl)-2-(4-(4-(1,1-dioxidothiomorpholino)phen-yl)-1-(3-fluoropyridin-2-yl)-1H-pyrazol-3-yl)cyclohexanecarboxamide] the IC50 [1] was 5.59 nM and the IC50 [2] was 3060 nM.

For C[C@@H](C#N)NC(=O)[C@@H]1CCCC[C@H]1c1nn(-c2ccc(F)cc2)c(CO)c1-c1ccc(N2CCS(=O)(=O)CC2)cc1 [Example 64, (1R,2R)-N-((S)-1-cyanoethyl)-2-(4-(4-(1,1-dioxidothiomorpholino)phen-yl)-1-(4-fluorophenyl)-5-(hydroxymethyl)-1H-pyrazol-3-yl)cyclohexanecarboxamide], the IC50 [1] was 4.61 nM and the IC50 [2] was 565 nM.

C[C@@H](C#N)NC(=O)[C@@H]1CC(F)(F)CC[C@H]1c1nn(-c2ccc(F)cn2)c(CO)c1-c1ccc(N2CCS(=O)(=O)CC2)cc1 [Example 67, (1R,2R)-N-((S)-1-cyanoethyl)-2-(4-(4-(1,1-dioxidothiomorpholino)phen-yl)-1-(5-fluoropyridin-2-yl)-5-(hydroxymethyl)-1H-pyrazol-3-yl)-5,5-difluorocyclohexanecarbox-amide] was tested, and the IC50 [1] was 1.24 nM and the IC50 [2] was 146 nM.

Work on N#CC1(NC(=O)[C@@H]2CCCC[C@H]2c2nn(-c3cc(F)cc(F)c3)cc2-c2ccc(N3CCS(=O)(=O)CC3)cc2)CC1 [Example 118, (1R,2R)-N-(1-cyanocyclopropyl)-2-(1-(3,5-difluorophenyl)-4-(4-(1,1-dioxidothiomorpholino)phen-yl)-1H-pyrazol-3-yl)cyclohexanecarboxamide] yielded an IC50 [1] of 0.54 nM and an IC50 [2] of 273 nM.

N#CC1(NC(=O)[C@@H]2CCCC[C@H]2c2nn(-c3ccc(C(O)(C(F)(F)F)C(F)(F)F)cc3)cc2-c2ccc(N3CCS(=O)(=O)CC3)cc2)CC1 [Example 109, (1R,2R)-N-(1-cyanocyclopropyl)-2-(4-(4-(1,1-dioxidothiomorpholino)phen-yl)-1-(4-(1,1,1,3,3,3-hexafluoro-2-hydroxypropan-2-yl)phenyl)-1H-pyrazol-3-yl)cyclohexanecarboxamide] showed an IC50 [1] of 2.67 nM and an IC50 [2] of 267 nM.

For N#CC1(NC(=O)[C@@H]2CC3CC3C[C@H]2c2nn(-c3ccc(Cl)cn3)cc2-c2ccc(N3CCS(=O)(=O)CC3)cc2)CC1 (single isomer, unassigned) [Example 155], the IC50 [1] was 0.56 nM and the IC50 [2] was 197 nM.

N#CC1(NC(=O)[C@@H]2CC(F)(F)CC[C@H]2c2nn(-c3ccc(F)cn3)c(CO)c2-c2ccc(N3CCS(=O)(=O)CC3)cc2)CC1 [Example 68, (1R,2R)-N-(1-cyanocyclopropyl)-2-(4-(4-(1,1-dioxidothiomorpholino)phen-yl)-1-(5-fluoropyridin-2-yl)-5-(hydroxymethyl)-1H-pyrazol-3-yl)-5,5-difluorocyclohexanecarbox-amide] gave an IC50 [1] of 1.41 nM and an IC50 [2] of 125 nM.

In the case of CNC(=O)N1CC(c2ccc(-c3cn(-c4ccc(F)cc4)nc3[C@@H]3CCCC[C@H]3C(=O)NC3(C#N)CC3)cc2)C1 [Example 135, 3-(4-(3-((1R,2R)-2-((1-cyanocyclopropyl)carbamoyl)cyclohexyl)-1-(4-fluorophenyl)-1H-pyrazol-4-yl)phenyl)-N-methylazetidine-1-carboxamide], the IC50 [1] is reported as 0.71 nM and the IC50 [2] is reported as 64 nM.

With N#Cc1cc(-n2cc(-c3ccc(N4CCS(=O)(=O)CC4)cc3)c([C@@H]3CCCC[C@H]3C(=O)NC3(C#N)CC3)n2)ccc1F [Example 110, (1R,2R)-2-(1-(3-cyano-4-fluorophenyl)-4-(4-(1,1-dioxidothiomorpholino)phen-yl)-1H-pyrazol-3-yl)-N-(1-cyanocyclopropyl)cyclohex-anecarboxamide] the IC50 [1] was 0.83 nM and the IC50 [2] was 275 nM.

Molecule N#CC1(NC(=O)[C@@H]2CCCC[C@H]2c2nn(-c3ccccc3OC(F)(F)F)cc2-c2ccc(N3CCS(=O)(=O)CC3)cc2)CC1 [Example 125, (1R,2R)-N-(1-cyanocyclopropyl)-2-(4-(4-(1,1-dioxidothiomorpholino)phen-yl)-1-(2-(trifluoromethoxy)phenyl)-1H-pyrazol-3-yl)cyclohexanecarboxamide] has an IC50 [1] of 2.18 nM and an IC50 [2] of 836 nM.

In the case of N#CC1(NC(=O)[C@@H]2CCCC[C@H]2c2nn(-c3ccc(C(F)(F)F)nc3)cc2-c2ccc(N3CCS(=O)(=O)CC3)cc2)CC1 [Example 166, (1R,2R)-N-(1-cyanocyclopropyl)-2-(4-(4-(1,1-dioxidothiomorpholino)phen-yl)-1-(6-(trifluoromethyl)pyridin-3-yl)-1H-pyrazol-3-yl)cyclohexanecarboxamide], the IC50 [1] is reported as 1.31 nM and the IC50 [2] is reported as 428 nM.

Cc1c(-c2ccc(N3CCS(=N)(=O)CC3)cc2)c([C@@H]2CCCC[C@H]2C(=O)N[C@H](C#N)C(C)C)nn1-c1ncccc1F [Example 52, (1R,2R)-N-((S)-1-cyano-2-methylpropyl)-2-(1-(3-fluoropyridin-2-yl)-4-(4-(1-imino-1-oxidothiomorpholino)phenyl)-5-methyl-1H-pyrazol-3-yl)cyclohexanecarboxamide] was tested, and the IC50 [1] was 22.5 nM and the IC50 [2] was 9320 nM.
